From US8841453B2, “Hybrid cholinesterase inhibitors” (priority 2011, dated 2014)

Columns and labels:
[1] = molecular target: AChE from the erythrocytes (Homo sapiens (Human), UniProt P22303); assay: Ellman's method, acetylcholinesterase inhibition; type: biochemical; details: human erythrocyte AChE, phosphate buffer pH 8.0 as reference
Protocol: (§1) The biological activity of the compounds of general formula (I) towards the cholinesterase inhibition was evaluated using Ellman's method (Ellman, G. L.; Courtney, K. D.; Anders, B.; Featherstone, R. M. Biochem. Pharmacol. 1961, 7, 88-95).
(§2) The inhibitor causes the enzyme activity drop which is dependent on the inhibitor concentration. […] The amount of the hydrolyzed ASCh/BSCh is measured indirectly, by quantification of the product of its reaction with DTNB (5,5′-dithio-bis-2-nitrobenzoic acid). Ellman's method relies therefore on the spectrophotometric quantification of product of the reaction between acylthiocholine and DTNB. IC50 value corresponds to the inhibitor concentration which causes the 50% decrease of the enzyme activity.
(§3) The enzymes are derived from human blood: AChE from the erythrocytes and BChE from the plasma. The phosphate buffer of pH 8.0 is used as the reference compound (lack of inhibition; enzyme activity—100%).

[2] = molecular target: BChE from the plasma (Homo sapiens (Human), UniProt P06276); assay: Ellman's method, butyrylcholinesterase inhibition; type: biochemical; details: for IC50: human plasma BChE, Ellman's method, phosphate buffer pH 8.0 as reference; for Selectivity IC50(AChE)/IC50(BChE): ratio of IC50 for AChE to IC50 for BChE
BChE from the plasma, sequence (P06276 29-602): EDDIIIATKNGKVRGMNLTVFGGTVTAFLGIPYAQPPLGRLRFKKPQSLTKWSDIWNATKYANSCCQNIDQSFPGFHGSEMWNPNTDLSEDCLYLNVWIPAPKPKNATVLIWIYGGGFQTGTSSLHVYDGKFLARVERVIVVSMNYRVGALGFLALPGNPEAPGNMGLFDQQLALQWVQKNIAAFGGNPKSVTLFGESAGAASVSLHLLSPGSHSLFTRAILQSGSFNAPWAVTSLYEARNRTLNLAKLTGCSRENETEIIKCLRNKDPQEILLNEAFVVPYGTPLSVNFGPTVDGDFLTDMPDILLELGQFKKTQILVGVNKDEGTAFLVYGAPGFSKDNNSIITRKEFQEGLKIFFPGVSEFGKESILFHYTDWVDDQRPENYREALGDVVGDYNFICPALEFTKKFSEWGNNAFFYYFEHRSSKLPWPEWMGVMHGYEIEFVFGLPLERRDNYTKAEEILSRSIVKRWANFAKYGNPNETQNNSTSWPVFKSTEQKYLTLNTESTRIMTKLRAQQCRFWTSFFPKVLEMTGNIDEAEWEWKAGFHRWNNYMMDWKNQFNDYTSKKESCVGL
Protocol: as §1, §2, §3

AChE from the erythrocytes, sequence (P22303 32-574 with tags or gaps limits assumed): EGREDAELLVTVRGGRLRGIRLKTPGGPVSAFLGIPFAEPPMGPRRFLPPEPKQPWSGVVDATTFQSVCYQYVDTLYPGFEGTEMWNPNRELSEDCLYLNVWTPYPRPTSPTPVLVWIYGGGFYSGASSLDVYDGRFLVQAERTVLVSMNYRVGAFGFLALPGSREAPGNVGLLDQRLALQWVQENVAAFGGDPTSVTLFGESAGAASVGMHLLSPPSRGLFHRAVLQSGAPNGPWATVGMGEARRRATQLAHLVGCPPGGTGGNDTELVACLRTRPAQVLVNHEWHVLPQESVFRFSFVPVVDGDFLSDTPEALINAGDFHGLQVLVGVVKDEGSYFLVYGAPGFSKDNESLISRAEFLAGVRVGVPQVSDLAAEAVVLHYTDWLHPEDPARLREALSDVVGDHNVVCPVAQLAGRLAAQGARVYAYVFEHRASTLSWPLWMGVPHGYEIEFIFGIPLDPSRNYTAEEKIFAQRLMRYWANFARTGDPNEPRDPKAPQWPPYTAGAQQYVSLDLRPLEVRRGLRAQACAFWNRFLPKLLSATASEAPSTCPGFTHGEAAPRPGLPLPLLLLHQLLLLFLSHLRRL

Structure (SMILES) | IC50 [1] [nM] | IC50 [2] [nM] | Selectivity IC50(AChE)/IC50(BChE) [2]
CC(=O)O[C@@]12CCN(C(C)=O)[C@@H]1N(C(C)=O)c1ccc(OC(=O)NCCCCCCNc3c4c(nc5ccccc35)CCCC4)cc12 (stereo in doubt) [Example 7, 1,8-diacetyl-5-({[6-(1,2,3,4-tetrahydroacridin-9-ylamino)hexyl]carbamoyl}oxy)-2,3,8,8a-tetrahydropyrrolo[2,3-b]indol-3a(1H)-yl acetate] | 36.8 ± 2.87 | 3.15 ± 0.83 | 11.7
CC(=O)NCCc1c[nH]c2ccc(OC(=O)NCCCCCCCNc3c4c(nc5ccccc35)CCCC4)cc12 [Example 1, 3-[2-(acetylamino)ethyl]-1H-indol-5-yl[7-(1,2,3,4-tetrahydroacridin-9-ylamino)heptyl]carbamate] | 33.8 ± 2.74 | 0.25 ± 0.02 | 135.1
CC(=O)NCCc1c[nH]c2ccc(OC(=O)NCCCCCCNc3c4c(nc5ccccc35)CCCC4)cc12 [Example 3, 3-[2-(acetylamino)ethyl]-1H-indol-5-yl[6-(1,2,3,4-tetrahydroacridin-9-ylamino)hexyl]carbamate] | 178 ± 16.3 | 2.04 ± 0.22 | 87.4
CC(=O)NCCc1c[nH]c2ccc(OC(=O)NCCCCCCCNc3c4c(nc5cc(Cl)ccc35)CCCC4)cc12 [Example 4, 3-[2-(acetylamino)ethyl]-1H-indol-5-yl{7-[(6-chloro-1,2,3,4-tetrahydroacridin-9-yl)amino]heptyl}carbamate] |  |  | 20.3
CC(=O)NCCc1c[nH]c2ccc(OC(=O)NCCNc3c4c(nc5cc(Cl)ccc35)CCCC4)cc12 [Example 5, 3-[2-(acetylamino)ethyl]-1H-indol-5-yl{2-[(6-chloro-1,2,3,4-tetrahydroacridin-9-yl)amino]ethyl}carbamate] |  |  | 0.6
CC(=O)NCCc1c[nH]c2ccc(OC(=O)NCCCNc3c4c(nc5ccccc35)CCCC4)cc12 [Example 8, 3-[2-(acetylamino)ethyl]-1H-indol-5-yl[3-(1,2,3,4-tetrahydroacridin-9-ylamino)propyl]carbamate] | 270 ± 19.4 | 58.2 ± 9.62 | 4.6
CC(=O)NCCc1c[nH]c2ccc(OC(=O)NCCCCNc3c4c(nc5ccccc35)CCCC4)cc12 [Example 9, 3-[2-(acetylamino)ethyl]-1H-indol-5-yl[4-(1,2,3,4-tetrahydroacridin-9-ylamino)butyl]carbamate] | 378 ± 42.4 | 15.5 ± 2.84 | 24.4
CC(=O)NCCc1c[nH]c2ccc(OC(=O)NCCCCCNc3c4c(nc5ccccc35)CCCC4)cc12 [Example 10, 3-[2-(acetylamino)ethyl]-1H-indol-5-yl[5-(1,2,3,4-tetrahydroacridin-9-ylamino)pentyl]carbamate] | 186 ± 11.2 | 2.07 ± 0.5 | 90.1
CC(=O)NCCc1c[nH]c2ccc(OC(=O)NCCCCCCCCNc3c4c(nc5ccccc35)CCCC4)cc12 [Example 11, 3-[2-(acetylamino)ethyl]-1H-indol-5-yl[8-(1,2,3,4-tetrahydroacridin-9-ylamino)octyl]carbamate] | 4.61 ± 0.32 | 0.25 ± 0.03 | 18.4
CC(=O)NCCc1c[nH]c2ccc(OC(=O)NCCCCCCCNc3c4c(nc5ccc(Cl)cc35)CCCC4)cc12 [Example 12, 3-[2-(acetylamino)ethyl]-1H-indol-5-yl{7-[(7-chloro-1,2,3,4-tetrahydroacridin-9-yl)amino]heptyl}carbamate] |  |  | 45.3
CC(=O)NCCc1c[nH]c2ccc(OC(=O)NCCNc3c4c(nc5ccc(Cl)cc35)CCCC4)cc12 [Example 13, 3-[2-(acetylamino)ethyl]-1H-indol-5-yl{2-[(7-chloro-1,2,3,4-tetrahydroacridin-9-yl)amino]ethyl}carbamate] |  |  | 400.1
CC(=O)NCCc1c[nH]c2ccc(OC(=O)NCCCCCCCCCCNc3c4c(nc5ccccc35)CCCC4)cc12 [Example 14, 3-[2-(acetylamino)ethyl]-1H-indol-5-yl[10-(1,2,3,4-tetrahydroacridin-9-ylamino)decyl]carbamate] | 1.18 ± 0.12 | 0.28 ± 0.04 | 4.2
CC(=O)NCCc1c[nH]c2ccc(OC(=O)NCCCCCCCCCCCCNc3c4c(nc5ccccc35)CCCC4)cc12 [Example 15, 3-[2-(acetylamino)ethyl]-1H-indol-5-yl[12-(1,2,3,4-tetrahydroacridin-9-ylamino)dodecyl]carbamate] | 3.8 ± 0.16 | 0.24 ± 0.08 | 15.8
CC(=O)NCCc1c[nH]c2ccc(OC(=O)NCCCCCCCCCCNc3c4c(nc5ccc(Cl)cc35)CCCC4)cc12 [Example 16, 3-[2-(acetylamino)ethyl]-1H-indol-5-yl{10-[(7-chloro-1,2,3,4-tetrahydroacridin-9-yl)amino]decyl}carbamate] | 1.43 ± 0.02 | 1.64 ± 0.14 | 0.9
CC(=O)NCCc1c[nH]c2ccc(OC(=O)NCCCCCCCCCCCCNc3c4c(nc5ccc(Cl)cc35)CCCC4)cc12 [Example 17, 3-[2-(acetylamino)ethyl]-1H-indol-5-yl{12-[(7-chloro-1,2,3,4-tetrahydroacridin-9-yl)amino]dodecyl}carbamate] | 7 ± 0.72 | 0.78 ± 0.16 | 9
CC(=O)NCCc1c[nH]c2ccc(OC(=O)NCCCCCCCCCCNc3c4c(nc5cc(Cl)ccc35)CCCC4)cc12 [Example 18, 3-[2-(acetylamino)ethyl]-1H-indol-5-yl{10-[(6-chloro-1,2,3,4-tetrahydroacridin-9-yl)amino]decyl}carbamate] |  |  | 6.7
CC(=O)NCCc1c[nH]c2ccc(OC(=O)NCCCCCCCCCCCCNc3c4c(nc5cc(Cl)ccc35)CCCC4)cc12 [Example 19, 3-[2-(acetylamino)ethyl]-1H-indol-5-yl{12-[(6-chloro-1,2,3,4-tetrahydroacridin-9-yl)amino]dodecyl}carbamate] |  |  | 19.5
